{"source": "patent US8715697B2", "about": "“Genes associated with Leishmania parasite virulence” (priority 2001, dated 2014)", "key": {"[1]": {"tested_on": "L. major parasites in the exponential growth phase", "experiment": "Inhibition of parasite (L. major) growth in a liquid medium by PDI inhibitors", "assay_type": "cell-based, Leishmania major", "details": "for growth of Leishmania in a liquid medium (summary statement): no concentration stated, refers to Example 4; for concentration that completely inhibited the growth of L. major in a liquid medium: counted every 24 h over 96 h, FIG. 9 and FIG. 11", "description": "They are growth curves taken over 96 hours, for promastigotes of L major in the presence of 0, 1 mM, 1.5 mM or 2 mM of bacitracin.\nDifferent concentrations of inhibitors (0 to 5 mM) were used to follow the effect of PDI inhibitors on the multiplication of parasites in vitro. Parasites that had not been treated with inhibitors (T) were selected as a control for these experiments.\nWith the aim of determining the effect of bacitracin (BAC), zinc bacitracin (BACZn), p-chloromercuribenzoic acid (PCMBA) and 5,5′-dithiobis(2-nitrobenzoic acid) (DTNB) on the in vitro growth of Leishmanias in a liquid medium, different concentrations of the inhibitors cited above, 0 mM, 0.05 mM, 0.1 mM, 0.2 mM, 0.5 mM, 1 mM, 1.5 mM, 2 mM, 2.5 mM and 5 mM were added to RPMI supplemented with 5% fetal calf serum and containing 2×10^6/ml of parasites in the exponential growth phase. The parasites were incubated at 26° C. and counted every 24 hours over 96 hours. The parasites were counted on Mallassez cells.\nThe PDI inhibitors described in paragraph (1—) were tested with the aim of evaluating their capacities to inhibit the in vitro growth of parasites. To this end, different quantities of inhibitors were added to RPMI containing 2×10^6/ml of parasites in the exponential growth phase. The parasites were incubated at 26° C. and counted every 24 hours over 96 hours. The parasites were counted on Mallassez cells."}, "[2]": {"tested_on": "recombinant LmPDI", "experiment": "Inhibition of reactivation of scrambled RNase A by recombinant LmPDI (thio-disulfide oxido-reductase activity)", "assay_type": "biochemical, Leishmania major", "details": "for inhibition of rLmPDI activity: FIG. 12; for concentration at which LmPDI activity is completely inhibited: inhibitors tested at 0.01, 0.1, 0.5 and 2 mM", "description": "(§1) Scrambled RNase A (8 μM) was incubated in a buffer containing 4.5 mM cCMP, 1 mM glutathione GSH, 0.2 mM glutathione disulfide GSSH, 2 mM EDTA and 100 mM of Tris-HCl pH 8 in the presence of bovine serum albumin (BSA) (1.4 μM) as a negative control, bovine protein disulfide-isomerase (1.4 μM) as a positive control, or recombinant LmPDI (1.4 μM) for 30 minutes at 25° C. RNase A reactivation was determined by measuring the RNase A activity at 296 nm every 5 minutes, as described in the literature (Lyles and Gilbert, 1991).\nas §1, with “The scrambled RNase” for “Scrambled RNase”, “mM Tris-HCl,” for “mM of Tris-HCl”, “pH 8,” for “pH 8”, “5 minutes for 30 minutes” for “5 minutes,”\nThe experimental conditions for the thio-disulfide oxido-reductase activity inhibition tests for recombinant LmPDI were strictly identical to those described in the paragraph “Reactivation of RNase A in the presence of recombinant LmPDI protein”, except that the reactions were carried out in the presence of 0.01 mM, 0.1 mM, 0.5 mM and 2 mM of the following PDI inhibitors: • bacitracin; • zinc bacitracin; • p-chloromercuribenzoic acid (pCMBA); • tocinoic acid. d) Inhibition of Parasite (L. Major) Growth in a Liquid Medium\n1—Evaluation of the inhibition of recombinant LmPDI. The detailed technique for analyzing the PDI activity of LmPDI was described in Example 2 and in the Materials and Methods section above. The same technique can be used to evaluate the capacity of certain PDI inhibitors which are known or still to be identified (using a molecular model of LmPDI), by adding different concentrations of potential inhibitors to the reaction volume. The results are expressed as the percentage inhibition compared with the buffer alone. Only molecules with a significant and dose-dependent LmPDI inhibiting activity are retained.\nWith the aim of determining whether the different PDI inhibitors described in the literature could inhibit the thio-disulfide oxido-reductase activity of LmPDI, the capacity of these inhibitors to block the enzymatic activity of LmPDI synthesized in E. coli then purified was studied in an in vitro test, at different-concentrations. The inhibitors were: • bacitracin; • zinc bacitracin; • p-chloromercuribenzoic acid (pCMBA); • tocinoic acid.\nTwenty milligrams of RNase A (Amersham.-Pharmacia) was denatured in a buffer composed of 0.15 M dithiothreitol, 6M guanidine HCl and 0.1 M Tris-HCl, pH 8.6 for 18 hours at ambient temperature. The scrambled RNase was then purified on a Sephadex G25 column equilibrated in HCl 0.01 M and quantified by spectrophotometry at 275 nm.\nIn a glutathione-based reducing buffer, PDI catalyzes renaturing of scrambled RNase (Gilbert, 1998). Restoration of RNase activity was measured by spectrophotometry in the presence of cytidine 2′-3′-cyclic monophosphate (cCMP) as a substrate. 8 μM of scrambled RNase, alone or in the presence of 1.4 μM of bovine serum albumin (BSA) or 1.4 μM of rLmPDI was mixed in a buffer containing 4.5 mM of cCMP, 1 mM of reduced glutathione (GSH), 200 μM of oxidized glutathione (GSSG), 2 mM EDTA and 100 mM Tris-Cl, pH 8. The reaction was carried out at ambient temperature for 30 minutes. The hydrolysis of cCMP resulting from the renaturing of RNase was recorded by measuring the absorbance at 296 nm every 5 minutes for the half hour of the reaction.\nThe activity of the recombinant LmPDI (rLmPDI) was measured in the presence of different concentrations of bacitracin (BAC 0.01 mM-2 mM) and zinc bacitracin (BACZn, 0.01 mM-2 mM)."}, "[3]": {"tested_on": "L. major GLC94 isolate promastigotes", "experiment": "Evolution of the disease in BALB/c mice infected with L. major GLC94 promastigotes, lesion size", "assay_type": "in vivo", "source_text": "Sensitive BALB/c mice were infected with 10^6 promastigotes from the GLC94 isolate into the plantar pad and treated or not treated with bacitracin. The treatment was halted 9 weeks after infection (the arrow indicates treatment stoppage).\nThe availability of zinc bacitracin, which already forms a weapon in the therapeutic arsenal, has allowed it to be tested on the evolution of infection in the BALB/c mouse with L. major. Mice were infected with promastigotes in the stationary growth phase (10^6 promastigotes per paw) of the GLC94 isolate into the plantar pad of the rear paw and treated with a pomade based on 5 mM or 25 mM of BACZn (prepared in Vaseline). Treatment with the pomade was started 48 hours after injecting the parasites, by dint of one application per day over 5 days of the week. Mice infected in the same manner and treated with Vaseline were used as the control. The lesion size was measured each week."}, "[4]": {"tested_on": "L. major GLC94 isolate promastigotes", "details": "treatments used in man; general statement; cited from earlier work"}, "[5]": {"tested_on": "GLC94 promastigotes", "experiment": "In vitro growth kinetics of L. major promastigotes in the presence of zinc bacitracin", "assay_type": "cell-based, Leishmania major", "details": "FIG. 13", "description": "FIG. 13 illustrates the inhibition of the multiplication of GLC94 promastigotes by zinc bacitracin. The effect of zinc bacitracin (BACZn) on the multiplication of GLC94 promastogotes was determined in vitro. Different concentrations of inhibitor were tested to analyze their effect on the capacity of the parasites to multiply in vitro. The control (C) was constituted by parasites cultivated in a complete medium in the absence of inhibitors.\nTo this end, promastigotes from the GLC94 isolate were cultured on a medium based on coagulated rabbit serum for two days. […] Promastigotes cultured in complete medium in the absence of inhibitors were used as the control. Monitoring was by counting the parasites at 48, 72 and 96 hours."}}, "note": "Where a SMILES comes first, the peptide text is derived from it. Bridges are numbered along the chain shown (N, C = ends). Where no end group is shown, it is not given here. [ ]: non-standard residue; d: D form. The star is where a group is joined. Ileψ(thiazoline)Cys = CC[C@H](C)[C@H](N)C1=N[C@H](C(=O)*)CS1; dOrn = NCCC[C@@H](N)C(=O)O"}
{"molecule": "O=C(O)c1cc(SSc2ccc([N+](=O)[O-])c(C(=O)O)c2)ccc1[N+](=O)[O-]", "note": "[DTNB, 5,5′-dithiobis(2-nitrobenzoic acid)]", "values": [{"measurement": "effect on the growth of Leishmanias in a liquid medium", "setting": "[1]; in the concentrations used (0 to 5 mM), FIG. 11", "value": "did not appear to have a very large effect"}]}
{"molecule": "CC[C@H](C)[C@H](N)C1=N[C@H](C(=O)N[C@@H](CC(C)C)C(=O)N[C@H](CCC(=O)O)C(=O)N[C@H](C(=O)N[C@H]2CCCCNC(=O)[C@H](CC(N)=O)NC(=O)[C@@H](CC(=O)O)NC(=O)[C@H](Cc3cnc[nH]3)NC(=O)[C@@H](Cc3ccccc3)NC(=O)[C@H]([C@@H](C)CC)NC(=O)[C@@H](CCCN)NC2=O)[C@@H](C)CC)CS1", "note": "[bacitracin] ({Ileψ(thiazoline)Cys}-L[dE]IK[dOrn]I[dF]H[dD]N; lactam 4-C)", "values": [{"measurement": "inhibition of rLmPDI activity", "setting": "[2]; 0.1 mM", "value": 50, "unit": "%"}, {"measurement": "inhibition of rLmPDI activity", "setting": "[2]; 0.5 mM", "value": 70, "unit": "%"}, {"measurement": "inhibition of rLmPDI activity", "setting": "[2]; 2 mM", "value": 100, "unit": "%"}, {"measurement": "concentration at which LmPDI activity is completely inhibited", "setting": "[2]; FIG. 10", "value": 2, "unit": "mM"}, {"measurement": "growth of Leishmania in a liquid medium (summary statement)", "setting": "[1]", "value": "inhibits the growth"}, {"measurement": "mice with lesion attenuation", "setting": "[3]; pomade 5 mM", "value": "2 out of 3"}, {"measurement": "mice with lesion attenuation", "setting": "[3]; pomade 25 mM", "value": "2 out of 4"}]}
{"molecule": "CNC[C@H](O)[C@@H](O)[C@H](O)[C@H](O)CO.[O]=[Sb](=[O])[OH]", "note": "[glucantime]", "values": [{"measurement": "effect on the disease induced in the BALB/c mouse", "setting": "[4]", "value": "little effect"}]}
{"molecule": "O=C(O)c1cc[c]([Hg][Cl])cc1", "note": "[pCMBA, p-chloromercuribenzoic acid]", "values": [{"measurement": "concentration at which LmPDI activity is completely inhibited", "setting": "[2]; FIG. 10", "value": 0.01, "unit": "mM"}, {"measurement": "concentration that completely inhibited the growth of L. major in a liquid medium", "setting": "[1]", "value": 0.5, "unit": "mM"}]}
{"molecule": "O=S(=O)(O)c1cc[c]([Hg][Cl])cc1", "note": "[pCMBS, p-chloromercuribenzene sulfonic acid]", "values": [{"measurement": "growth of Leishmania in a liquid medium (summary statement)", "setting": "[1]", "value": "inhibits the growth"}]}
{"molecule": "NC[C@@H]1O[C@H](O[C@H]2[C@@H](O)[C@H](O[C@@H]3[C@@H](O)[C@H](N)C[C@H](N)[C@H]3O[C@H]3O[C@H](CO)[C@@H](O)[C@H](O)[C@H]3N)O[C@@H]2CO)[C@H](N)[C@@H](O)[C@@H]1O", "note": "[paramomycin]", "values": [{"measurement": "effect on the disease induced in the BALB/c mouse", "setting": "[4]", "value": "little effect"}]}
{"molecule": "tocinoic acid (CYIQNC; not fully specified (bridges); cysteine pairing not given here; UniProt P01178 20-25, looked up, fragment)", "values": [{"measurement": "effect on the activity of LmPDI", "setting": "[2]; FIG. 10, at the concentrations employed (0.01 to 2 mM)", "value": "did not appear to have a very great effect"}]}
{"molecule": "zinc bacitracin", "values": [{"measurement": "inhibition of rLmPDI activity", "setting": "[2]; 0.1 mM", "value": 50, "unit": "%"}, {"measurement": "inhibition of rLmPDI activity", "setting": "[2]; 0.5 mM", "value": 70, "unit": "%"}, {"measurement": "inhibition of rLmPDI activity", "setting": "[2]; 2 mM", "value": 100, "unit": "%"}, {"measurement": "concentration at which LmPDI activity is completely inhibited", "setting": "[2]; FIG. 10", "value": 2, "unit": "mM"}, {"measurement": "growth of parasites", "setting": "[5]; 1 mM", "value": "no effect"}, {"measurement": "growth of parasites", "setting": "[5]; 1.5 mM", "value": "partially inhibits"}, {"measurement": "growth of parasites", "setting": "[5]; 2 mM", "value": "complete inhibition"}, {"measurement": "growth of parasites", "setting": "[5]; 5 mM", "value": "complete inhibition"}, {"measurement": "concentration that completely inhibited the growth of L. major in a liquid medium", "setting": "[1]", "value": 2, "unit": "mM"}, {"measurement": "progress of the disease (lesion size)", "setting": "[3]; pomade in Vaseline applied locally at the injection site, from 48 h after infection, preliminary, FIG. 14", "value": "attenuates the progress of the disease"}]}
